Data: the supplement of paper PMC11451515

Key:
Details in all cases: 48 h
SEM cells [1] = assay: cell viability relative to DMSO control; higher = less cytotoxic
Method in brief: (§1)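 Three leukemia lines were tested: NOMO1 and SEM at 500 cells/well and P12-Ichikawa at 1000 cells/well. Each was adapted for at least four passages in each medium and seeded in 5 μl in 1536-well plates, and library compounds in DMSO were pin-dosed from 47 μM to 0.79 nM in 11 threefold steps. After 48 h at 37°C, CellTiter-Glo One luminescence was read. Viability is a percentage relative to DMSO wells on each plate, with cell-free wells as background.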

P12-Ichikawa [2] = assay: as above
Method in brief: as §1

NOMO1 [3] = assay: as above
Method in brief: as §1

SEM cells [4] = assay: AUC of viability dose-response curve (% viability x log10 dose units); higher = less sensitive
Method in brief: (§2)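 Over 48 h at 37°C, leukemia cells in 1536-well plates (500 or 1000 cells/well), adapted to each medium, received library compounds in DMSO at 11 threefold doses from 47 μM to 0.79 nM. CellTiter-Glo One luminescence, normalised per plate to DMSO and cell-free wells, was fitted by a four-parameter log-logistic function of log10 dose. The area under the curve was then integrated by trapezoidal rule, after scaling curves above full viability and removing those that failed quality control.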

P12-Ichikawa [5] = assay: as above
Method in brief: as §2

NOMO1 [6] = assay: as above
Method in brief: as §2

NC1CCC(Nc2nc(Nc3ccc(C(=O)N4CCCCC4)cc3)c3ncn(-c4cccc(F)c4)c3n2)CC1 (centres undefined)
cell viability [%]
Details	NOMO1 [3]	P12-Ichikawa [2]	SEM cells [1]
HPLM + 10% dialyzed FBS, 0.000781 µM	114	110	91.7
HPLM + 10% dialyzed FBS, 0.00234 µM	110	112	94.8
HPLM + 10% dialyzed FBS, 0.00702 µM	119	115	95.2
HPLM + 10% dialyzed FBS, 0.0211 µM	121	117	96.6
HPLM + 10% dialyzed FBS, 0.0632 µM	132	112	102
HPLM + 10% dialyzed FBS, 0.19 µM	117	126	117
HPLM + 10% dialyzed FBS, 0.569 µM	129	120	55
HPLM + 10% dialyzed FBS, 1.71 µM	144	121	59.1
HPLM + 10% dialyzed FBS, 5.12 µM	107	124	102
HPLM + 10% dialyzed FBS, 15.4 µM	119	137	128
HPLM + 10% dialyzed FBS, 46.1 µM	154	134	125
RPMI 5 mM glucose + 10% FBS, 0.000781 µM	117	116	110
RPMI 5 mM glucose + 10% FBS, 0.00234 µM	113	119	102
RPMI 5 mM glucose + 10% FBS, 0.00702 µM	113	120	104
RPMI 5 mM glucose + 10% FBS, 0.0211 µM	126	125	112
RPMI 5 mM glucose + 10% FBS, 0.0632 µM	123	120	103
RPMI 5 mM glucose + 10% FBS, 0.19 µM	124	128	124
RPMI 5 mM glucose + 10% FBS, 0.569 µM	129	125	75.9
RPMI 5 mM glucose + 10% FBS, 1.71 µM	107	124	62.9
RPMI 5 mM glucose + 10% FBS, 5.12 µM	123	126	100
RPMI 5 mM glucose + 10% FBS, 15.4 µM	128	139	110
RPMI 5 mM glucose + 10% FBS, 46.1 µM	129	123	90.1
RPMI 5 mM glucose + 10% dialyzed FBS, 0.000781 µM	118	112	99.6
RPMI 5 mM glucose + 10% dialyzed FBS, 0.00234 µM	114	108	99
RPMI 5 mM glucose + 10% dialyzed FBS, 0.00702 µM	133	120	100
RPMI 5 mM glucose + 10% dialyzed FBS, 0.0211 µM	113	119	99.3
RPMI 5 mM glucose + 10% dialyzed FBS, 0.0632 µM	121	121	106
RPMI 5 mM glucose + 10% dialyzed FBS, 0.19 µM	127	123	113
RPMI 5 mM glucose + 10% dialyzed FBS, 0.569 µM	127	118	64.6
RPMI 5 mM glucose + 10% dialyzed FBS, 1.71 µM	121	118	41.9
RPMI 5 mM glucose + 10% dialyzed FBS, 5.12 µM	125	129	98.6
RPMI 5 mM glucose + 10% dialyzed FBS, 15.4 µM	119	139	98.6
RPMI 5 mM glucose + 10% dialyzed FBS, 46.1 µM	123	130	88.9

AUC of viability dose-response curve
Details	NOMO1 [6]	P12-Ichikawa [5]	SEM cells [4]
HPLM + 10% dialyzed FBS	437	429	436
RPMI 5 mM glucose + 10% FBS	457	459	435
RPMI 5 mM glucose + 10% dialyzed FBS	470	439	426

CC(C)C(=O)Nc1ncc(-c2cc(C(F)F)nn2-c2c(Cl)cccc2Cl)s1
cell viability [%]
Details	NOMO1 [3]	P12-Ichikawa [2]	SEM cells [1]
HPLM + 10% dialyzed FBS, 0.000781 µM	116	122	109
HPLM + 10% dialyzed FBS, 0.00234 µM	123	122	117
HPLM + 10% dialyzed FBS, 0.00702 µM	112	117	120
HPLM + 10% dialyzed FBS, 0.0211 µM	137	120	121
HPLM + 10% dialyzed FBS, 0.0632 µM	152	126	130
HPLM + 10% dialyzed FBS, 0.19 µM	125	136	121
HPLM + 10% dialyzed FBS, 0.569 µM	148	129	133
HPLM + 10% dialyzed FBS, 1.71 µM	132	131	146
HPLM + 10% dialyzed FBS, 5.12 µM	133	134	124
HPLM + 10% dialyzed FBS, 15.4 µM	133	132	114
HPLM + 10% dialyzed FBS, 46.1 µM	83.9	63.5	48.7
RPMI 5 mM glucose + 10% dialyzed FBS, 0.000781 µM	–	–	102
RPMI 5 mM glucose + 10% dialyzed FBS, 0.00234 µM	–	–	114
RPMI 5 mM glucose + 10% dialyzed FBS, 0.00702 µM	–	–	140
RPMI 5 mM glucose + 10% dialyzed FBS, 0.0211 µM	–	–	130
RPMI 5 mM glucose + 10% dialyzed FBS, 0.0632 µM	–	–	124
RPMI 5 mM glucose + 10% dialyzed FBS, 0.19 µM	–	–	132
RPMI 5 mM glucose + 10% dialyzed FBS, 0.569 µM	–	–	138
RPMI 5 mM glucose + 10% dialyzed FBS, 1.71 µM	–	–	142
RPMI 5 mM glucose + 10% dialyzed FBS, 5.12 µM	–	–	134
RPMI 5 mM glucose + 10% dialyzed FBS, 15.4 µM	–	–	126
RPMI 5 mM glucose + 10% dialyzed FBS, 46.1 µM	–	–	57.5

AUC of viability dose-response curve
Details	NOMO1 [6]	P12-Ichikawa [5]	SEM cells [4]
HPLM + 10% dialyzed FBS	468	465	458
RPMI 5 mM glucose + 10% FBS	472	460	465
RPMI 5 mM glucose + 10% dialyzed FBS	460	463	463

CCCC1=N[N](C)C2=C1\N=C(/NC2=O)C3=CC(=CC=C3OCC)[S+]([O-])(=O)N4CCN(C)CC4
cell viability [%]
Details	NOMO1 [3]	P12-Ichikawa [2]	SEM cells [1]
HPLM + 10% dialyzed FBS, 0.000781 µM	85.1	82.3	44.2
HPLM + 10% dialyzed FBS, 0.00234 µM	83.9	92.6	88.3
HPLM + 10% dialyzed FBS, 0.00702 µM	81.6	89.5	87.9
HPLM + 10% dialyzed FBS, 0.0211 µM	83.7	88.6	94.3
HPLM + 10% dialyzed FBS, 0.0632 µM	86.1	90.7	74
HPLM + 10% dialyzed FBS, 0.19 µM	87.9	89.5	88.4
HPLM + 10% dialyzed FBS, 0.569 µM	98.8	88.2	79.8
HPLM + 10% dialyzed FBS, 1.71 µM	82.4	80.4	80.8
HPLM + 10% dialyzed FBS, 5.12 µM	81.1	86.5	87
HPLM + 10% dialyzed FBS, 15.4 µM	83.6	84	46.3
HPLM + 10% dialyzed FBS, 46.1 µM	52.8	50.7	2.85
RPMI 5 mM glucose + 10% FBS, 0.000781 µM	79.5	81.4	46.9
RPMI 5 mM glucose + 10% FBS, 0.00234 µM	92.9	87.3	108
RPMI 5 mM glucose + 10% FBS, 0.00702 µM	77.4	89.2	97.7
RPMI 5 mM glucose + 10% FBS, 0.0211 µM	81.6	80.9	85.9
RPMI 5 mM glucose + 10% FBS, 0.0632 µM	76	77.5	66.6
RPMI 5 mM glucose + 10% FBS, 0.19 µM	90.2	87.6	79.7
RPMI 5 mM glucose + 10% FBS, 0.569 µM	72	84.1	74
RPMI 5 mM glucose + 10% FBS, 1.71 µM	83.7	82.1	78
RPMI 5 mM glucose + 10% FBS, 5.12 µM	77.3	85.2	86.9
RPMI 5 mM glucose + 10% FBS, 15.4 µM	79.3	82.4	46.2
RPMI 5 mM glucose + 10% FBS, 46.1 µM	76.9	20.7	32.2
RPMI 5 mM glucose + 10% dialyzed FBS, 0.000781 µM	94.4	81.4	46.1
RPMI 5 mM glucose + 10% dialyzed FBS, 0.00234 µM	88	84.5	94.2
RPMI 5 mM glucose + 10% dialyzed FBS, 0.00702 µM	91.9	80.8	88.5
RPMI 5 mM glucose + 10% dialyzed FBS, 0.0211 µM	84.5	86.6	87.4
RPMI 5 mM glucose + 10% dialyzed FBS, 0.0632 µM	72.3	82.5	61.7
RPMI 5 mM glucose + 10% dialyzed FBS, 0.19 µM	96	86.8	81.2
RPMI 5 mM glucose + 10% dialyzed FBS, 0.569 µM	82.3	79.7	89.9
RPMI 5 mM glucose + 10% dialyzed FBS, 1.71 µM	77.1	85.1	102
RPMI 5 mM glucose + 10% dialyzed FBS, 5.12 µM	77.4	77.8	88.1
RPMI 5 mM glucose + 10% dialyzed FBS, 15.4 µM	85.2	79.2	61.9
RPMI 5 mM glucose + 10% dialyzed FBS, 46.1 µM	80.8	33.1	4.25

AUC of viability dose-response curve
Details	NOMO1 [6]	P12-Ichikawa [5]	SEM cells [4]
HPLM + 10% dialyzed FBS	400	407	349
RPMI 5 mM glucose + 10% FBS	385	385	356
RPMI 5 mM glucose + 10% dialyzed FBS	403	381	364
